Reference: PubChem BioAssay (NCI)
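GI50: concentration for 50% inhibition of growth. Definition used: TGI = concentration required for complete inhibition of growth.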

Legend:
Assay in all cases: NCI tumour cell line growth inhibition, 384-well format
[1] = test system: COLO 205 colon
[2] = test system: MDA-MB-468 breast
[3] = test system: UACC-257 melanoma
[4] = test system: HCT-15 colon
[5] = test system: NCI-H226 lung
[6] = test system: RPMI-8226 leukemia
[7] = test system: SK-MEL-5 melanoma
[8] = test system: T-47D breast
[9] = test system: SW-620 colon
[10] = test system: HOP-62 NSCLC
[11] = test system: SF-268 CNS
[12] = test system: BT-549 breast
[13] = test system: A549 NSCLC
[14] = test system: K-562 leukemia
[15] = test system: MOLT-4 leukemia
[16] = test system: EKVX NSCLC
[17] = test system: HL-60(TB) leukemia
[18] = test system: KM12 colon
[19] = test system: LOX IMVI melanoma
[20] = test system: MDA-MB-435 melanoma
[21] = test system: NCI/ADR-RES ovarian
[22] = test system: NCI-H23 lung
[23] = test system: SN12C renal
[24] = test system: HCC-2998 colon
[25] = test system: OVCAR-3 ovarian
[26] = test system: MDA-MB-231 breast
[27] = test system: SF-539 CNS
[28] = test system: SK-MEL-28 melanoma
[29] = test system: M14 melanoma
[30] = test system: RXF 393 renal
[31] = test system: HCT-116 colon
[32] = test system: IGROV1 ovarian
[33] = test system: HT29 colon
[34] = test system: OVCAR-8 ovarian
[35] = test system: CCRF-CEM leukemia
[36] = test system: PC-3 prostate
[37] = test system: SF-295 CNS
[38] = test system: NCI-H322M lung
[39] = test system: HS 578T breast
[40] = test system: MALME-3M melanoma
[41] = test system: NCI-H460 NSCLC
[42] = test system: OVCAR-4 ovarian
[43] = test system: CAKI-1 renal
[44] = test system: SK-MEL-2 melanoma
[45] = test system: UACC-62 melanoma
[46] = test system: NCI-H522 lung
[47] = test system: UO-31 renal
[48] = test system: ACHN renal
[49] = test system: SK-OV-3 ovarian
[50] = test system: OVCAR-5 ovarian
[51] = test system: 786-0 renal
[52] = test system: U251 glioblastoma
[53] = test system: A498 renal

Q: `CS(=O)(=O)Nc1cc(-c2ccc3ncnc(Nc4ccc(F)c(Cl)c4)c3c2)cnc1Cl` was tested. Which GI50 [1] did it give?
A: 1.21 µM

Q: What about the TGI [1] of the same molecule?
A: 2.99 µM

Q: What about the GI50 [2] of the same molecule?
A: 0.253 µM

Q: What about the TGI [2] of the same molecule?
A: 0.769 µM

Q: And the GI50 [3]?
A: 1.36 µM

Q: What about the TGI [3] of the same molecule?
A: 5.54 µM

Q: What about the GI50 [4] of the same molecule?
A: 0.885 µM

Q: What about the TGI [4] of the same molecule?
A: 3.14 µM

Q: And the GI50 [5]?
A: 1.44 µM

Q: What about the TGI [5] of the same molecule?
A: 13.4 µM

Q: What about the GI50 [6] of the same molecule?
A: 0.37 µM

Q: What about the TGI [6] of the same molecule?
A: 1.58 µM

Q: What about the GI50 [7] of the same molecule?
A: 1.03 µM

Q: What about the TGI [7] of the same molecule?
A: 2.22 µM

Q: And the GI50 [8]?
A: 0.0855 µM

Q: And the TGI [8]?
A: 0.548 µM

Q: And the GI50 [9]?
A: 1.65 µM

Q: And the TGI [9]?
A: 3.84 µM

Q: What about the GI50 [10] of the same molecule?
A: 1.43 µM

Q: And the TGI [10]?
A: 5.19 µM

Q: And the GI50 [11]?
A: 1.42 µM

Q: What about the TGI [11] of the same molecule?
A: 2.9 µM

Q: What about the GI50 [12] of the same molecule?
A: 0.573 µM

Q: What about the TGI [12] of the same molecule?
A: 2.34 µM

Q: What about the GI50 [13] of the same molecule?
A: 1.37 µM

Q: What about the TGI [13] of the same molecule?
A: 2.84 µM

Q: What about the GI50 [14] of the same molecule?
A: 1.52 µM

Q: What about the TGI [14] of the same molecule?
A: 10.6 µM

Q: What about the GI50 [15] of the same molecule?
A: 0.16 µM

Q: What about the TGI [15] of the same molecule?
A: 0.348 µM

Q: What about the GI50 [16] of the same molecule?
A: 0.498 µM

Q: What about the TGI [16] of the same molecule?
A: 2.06 µM

Q: And the GI50 [17]?
A: 0.158 µM

Q: And the TGI [17]?
A: 1.06 µM

Q: What about the GI50 [18] of the same molecule?
A: 2.86 µM

Q: What about the TGI [18] of the same molecule?
A: 19.9 µM

Q: What about the GI50 [19] of the same molecule?
A: 1.22 µM

Q: What about the TGI [19] of the same molecule?
A: 2.56 µM

Q: And the GI50 [20]?
A: 1.38 µM

Q: And the TGI [20]?
A: 7.87 µM

Q: What about the GI50 [21] of the same molecule?
A: 3.6 µM

Q: And the TGI [21]?
A: 40.3 µM

Q: What about the GI50 [22] of the same molecule?
A: 1.15 µM

Q: And the TGI [22]?
A: 4.03 µM

Q: What about the GI50 [23] of the same molecule?
A: 0.524 µM

Q: And the TGI [23]?
A: 5.25 µM

Q: What about the GI50 [24] of the same molecule?
A: 1.18 µM

Q: What about the TGI [24] of the same molecule?
A: 2.62 µM

Q: And the GI50 [25]?
A: 0.457 µM

Q: What about the TGI [25] of the same molecule?
A: 1.85 µM

Q: What about the GI50 [26] of the same molecule?
A: 2.33 µM

Q: What about the TGI [26] of the same molecule?
A: > 100 µM

Q: And the GI50 [27]?
A: 1.48 µM

Q: And the TGI [27]?
A: 5.05 µM

Q: What about the GI50 [28] of the same molecule?
A: 0.728 µM

Q: What about the TGI [28] of the same molecule?
A: 8.86 µM

Q: And the GI50 [29]?
A: 1.14 µM

Q: And the TGI [29]?
A: 4 µM

Q: What about the GI50 [30] of the same molecule?
A: 0.45 µM

Q: What about the TGI [30] of the same molecule?
A: 1.96 µM

Q: What about the GI50 [31] of the same molecule?
A: 1.14 µM

Q: What about the TGI [31] of the same molecule?
A: 2.64 µM

Q: What about the GI50 [32] of the same molecule?
A: 0.154 µM

Q: And the TGI [32]?
A: 0.471 µM

Q: And the GI50 [33]?
A: 1.11 µM

Q: And the TGI [33]?
A: 2.52 µM

Q: What about the GI50 [34] of the same molecule?
A: 1.91 µM

Q: What about the TGI [34] of the same molecule?
A: 10.1 µM

Q: What about the GI50 [35] of the same molecule?
A: 0.166 µM

Q: What about the TGI [35] of the same molecule?
A: 0.466 µM

Q: What about the GI50 [36] of the same molecule?
A: 0.872 µM

Q: And the TGI [36]?
A: 2.28 µM

Q: And the GI50 [37]?
A: 1.29 µM

Q: And the TGI [37]?
A: 2.93 µM

Q: And the GI50 [38]?
A: 1.19 µM

Q: And the TGI [38]?
A: 3.36 µM

Q: And the GI50 [39]?
A: 0.501 µM

Q: And the TGI [39]?
A: 2.31 µM

Q: What about the GI50 [40] of the same molecule?
A: 0.293 µM

Q: And the TGI [40]?
A: 1.64 µM

Q: What about the GI50 [41] of the same molecule?
A: 1.01 µM

Q: What about the TGI [41] of the same molecule?
A: 3.84 µM

Q: And the GI50 [42]?
A: 1.22 µM

Q: What about the TGI [42] of the same molecule?
A: 4.45 µM

Q: And the GI50 [43]?
A: 0.492 µM

Q: What about the TGI [43] of the same molecule?
A: 2.02 µM

Q: And the GI50 [44]?
A: 1.2 µM

Q: And the TGI [44]?
A: 2.55 µM

Q: What about the GI50 [45] of the same molecule?
A: 1.04 µM

Q: What about the TGI [45] of the same molecule?
A: 2.55 µM

Q: What about the GI50 [46] of the same molecule?
A: 0.547 µM

Q: What about the TGI [46] of the same molecule?
A: 2.36 µM

Q: And the GI50 [47]?
A: 0.639 µM

Q: What about the TGI [47] of the same molecule?
A: 2.42 µM

Q: And the GI50 [48]?
A: 1.8 µM

Q: What about the TGI [48] of the same molecule?
A: > 100 µM

Q: And the GI50 [49]?
A: 0.635 µM

Q: What about the TGI [49] of the same molecule?
A: 3.32 µM

Q: And the GI50 [50]?
A: 0.939 µM

Q: What about the TGI [50] of the same molecule?
A: 4.55 µM

Q: What about the GI50 [51] of the same molecule?
A: 1.35 µM

Q: What about the TGI [51] of the same molecule?
A: 4.82 µM

Q: And the GI50 [52]?
A: 0.691 µM

Q: And the TGI [52]?
A: 2.11 µM

Q: What about the GI50 [53] of the same molecule?
A: 0.905 µM

Q: And the TGI [53]?
A: 4.06 µM
